Source: paper PMC2720136 (Bioorganic & medicinal chemistry, 2009)
Blank lines part the entries; values can stand above or below the molecule they belong to.

Experiments:
pig kidney FBPase = biological target: T1, pig kidney FBPase (Sus scrofa, UniProt P00636); assay: Coupled-enzyme FBPase activity assay; type: biochemical
T1 sequence (P00636 1-338): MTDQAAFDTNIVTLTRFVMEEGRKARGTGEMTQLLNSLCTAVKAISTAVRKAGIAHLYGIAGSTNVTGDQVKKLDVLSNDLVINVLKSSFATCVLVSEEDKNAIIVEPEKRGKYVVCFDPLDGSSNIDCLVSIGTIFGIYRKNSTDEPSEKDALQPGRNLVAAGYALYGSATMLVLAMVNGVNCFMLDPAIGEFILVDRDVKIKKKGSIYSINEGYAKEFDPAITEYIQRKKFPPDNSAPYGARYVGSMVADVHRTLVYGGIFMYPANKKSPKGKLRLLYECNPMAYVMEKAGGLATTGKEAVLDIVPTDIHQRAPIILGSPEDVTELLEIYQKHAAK

human liver FBPase = assay: Inhibition of human liver FBPase by MB05032; type: biochemical; details: MB05032 EC50 (human liver FBPase) vs 4c IC50 (pig kidney FBPase)

SMILES: Oc1ccc(Nc2nc(-c3ccc(O)cc3)cs2)cc1 [Compound 3b, 4-(4-(4-Hydroxyphenyl)thiazol-2-ylamino)phenol]
fold improved inhibitory activity of 3b over 3a (pig kidney FBPase; ratio of IC50, 3a vs 3b): 3 fold

SMILES: O=[N+]([O-])c1ccc(-c2csc(Nc3ccc(O)cc3)n2)cc1 [Compound 3d, 4-(4-(4-Nitrophenyl)thiazol-2-ylamino)phenol]
inhibition with nitro at R5 (in words) (pig kidney FBPase; pig kidney FBPase): eliminated

SMILES: CC(C)Cc1sc(N)nc1-c1ccc(P(=O)(O)O)o1 [MB05032]
fold better than 4c (human liver FBPase): approximately 370 fold

Further lines, results first:

fold improved inhibition of 5b over 5a (pig kidney FBPase; ratio of IC50, 5a vs 5b): ~18 fold
SMILES: Oc1ccc(-c2csc(Nc3ccccc3O)n2)cc1 [Compound 5b, 2-(4-(4-Hydroxyphenyl)thiazol-2-ylamino)phenol]

inhibitory activity against the enzyme at 300 μM (pig kidney FBPase; pig kidney FBPase, 300 μM inhibitor): no significant inhibitory activity
SMILES: O=[N+]([O-])c1cccc(Nc2nc(-c3ccccc3)cs2)c1 [Compound 7a, N-(3-Nitrophenyl)-4-phenylthiazol-2-amine]

inhibition with nitro at R5 (in words) (pig kidney FBPase; pig kidney FBPase): eliminates inhibition
SMILES: O=[N+]([O-])c1ccc(-c2csc(Nc3ccccc3)n2)cc1 [Compound 8e, 4-(4-Nitrophenyl)-N-phenylthiazol-2-amine]
